From patent US20010039255A1, “Use of alpha1A adrenoceptor agonists with alpha1B and alpha1D antagonism for the treatment of stress urinary incontinence” (priority 2000, published 2001)
Where two headings read alike, the source gives them in different places.

Key:
Female Beagle dogs = settings: for IUP ED5mmHg: dose producing 5 mmHg increase in intraurethral pressure; for effect on intraurethral pressure and mean arterial pressure: increasing i.v. doses, dogs, FIGS. 1-4
Excerpt: Female Beagle dogs (Marshall Farms, North Rose, N.Y.) greater that 2 years of age and weighing between 12 and 15 kg were used in these studies. At least 2 weeks prior to any agonist dosing, dogs were instrumented for the chronic measurement of arterial blood pressure by implanting a telemetry transducer/transmitter (TA11PA-C40, Data Sciences International, St. Paul, Minn.) into a carotid artery.
On the test day, dogs fasted since the previous afternoon were pre-anesthetized with thiopental sodium 15 mg/kg i.v. (Pentothal™, Abbott) and intubated. Anesthesia was maintained by allowing the dog to spontaneously breathe a mixture of isoflurane (2.5 to 3 volume %) and oxygen delivered by a Narkomed Standard anesthesia system (North American Drager, Telford, Pa.). An Abbocath-T™ i.v. catheter (18-G, Abbott Laboratories, Abbott Park, Ill.) was inserted into the cephalic vein for the administration of agonists. A telemetry receiver (RA1310, DataSciences) was placed under the head of each dog and was interfaced to a computerized data acquisition system (Modular Instruments Inc.(MI2), Malvern, Pa.) which allowed for the continuous calibrated recording of arterial blood pressure which was electronically filtered to determine its mean value (MAP).
Intraurethral pressure was monitored using a balloon catheter technique previously described (Brune et al., Drug Development Research 34:267-275,1995). Briefly, a 7 Fr catheter balloon catheter (41224-01, Abbott) was inserted into the urethral orifice and advanced approximately 15 cm until the tip was well inside the bladder. The balloon was then inflated with 1 ml of room air and the catheter slowly withdrawn until resistance (corresponding to the bladder neck) was evident. The balloon was then deflated and the catheter withdrawn an additional 2 cm. The balloon was then reinflated and its catheter port connected to a Gould Statham P23Dd pressure transducer interfaced to a computerized data acquisition system (Modular Instruments, Inc., Malvern, Pa.) for the measurement of intraurethral pressure (IUP). The MAP and IUP pressor responses to increasing iv doses of test agonists were obtained simultaneously. The pressor effects of each dose were allowed to return to baseline before the next dose was given.
The dose required to elicit significant and clinically meaningful changes in IUP (5 mm Hg) relative to the dose required to elicit a physiologically significant increase in blood pressure (20 mm Hg) is calculated.
IUP and MAP pressor effects of each agonist dose were expressed as the maximum net change in each pressure over pre-dose baseline levels. Subsequently, the effective doses required to produce a 5 mmHg increase in IUP (IUP ED5mmHg) and a 20 mmHg increase in MAP (MAP ED20mmHg) were estimated from the dose response data from each dog. Relative urethral versus vascular selectivity of each agonist in each dog was estimated using a ratio of these respective potency indices (MAP ED20mmHg/IUP ED5mmHg).

[1] = target: T1, α1b (hamster receptor expressed in mouse fibroblasts) (Mesocricetus auratus, UniProt P18841); experiment: Radioligand binding with [3H]-prazosin, α1b (hamster receptor expressed in mouse fibroblasts)
T1 construct: expressed in transfected cells; host or cells: mouse fibroblasts
T1 sequence (P18841 1-515): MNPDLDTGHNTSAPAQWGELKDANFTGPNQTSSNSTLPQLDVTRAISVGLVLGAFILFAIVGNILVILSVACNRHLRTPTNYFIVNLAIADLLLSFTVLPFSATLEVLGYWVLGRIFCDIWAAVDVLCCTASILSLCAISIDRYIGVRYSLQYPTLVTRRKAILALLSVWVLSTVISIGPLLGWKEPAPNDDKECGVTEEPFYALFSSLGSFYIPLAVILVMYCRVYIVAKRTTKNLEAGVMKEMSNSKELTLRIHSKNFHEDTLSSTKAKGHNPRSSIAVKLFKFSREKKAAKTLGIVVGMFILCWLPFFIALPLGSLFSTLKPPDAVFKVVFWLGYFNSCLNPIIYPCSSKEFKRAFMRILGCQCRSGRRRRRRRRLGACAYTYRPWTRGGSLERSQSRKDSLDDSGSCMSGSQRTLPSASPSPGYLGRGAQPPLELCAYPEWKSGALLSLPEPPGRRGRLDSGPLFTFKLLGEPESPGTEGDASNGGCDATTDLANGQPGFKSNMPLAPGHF
Excerpt: Radioligand Binding Ki (nM)
Exp. Ther. (1995), 274, 97-103.

[2] = target: T2, α1D adrenoceptor (rat aorta) (Rattus norvegicus, UniProt P23944); settings: for α1D efficacy: percent of phenylephrine (100%) contraction; for α1D r: Schild plot regression correlation; for α1D slope: Schild plot slope; for type of antagonism at α1D: based on slope and regression (r) of Schild plot
T2 sequence (P23944 1-561): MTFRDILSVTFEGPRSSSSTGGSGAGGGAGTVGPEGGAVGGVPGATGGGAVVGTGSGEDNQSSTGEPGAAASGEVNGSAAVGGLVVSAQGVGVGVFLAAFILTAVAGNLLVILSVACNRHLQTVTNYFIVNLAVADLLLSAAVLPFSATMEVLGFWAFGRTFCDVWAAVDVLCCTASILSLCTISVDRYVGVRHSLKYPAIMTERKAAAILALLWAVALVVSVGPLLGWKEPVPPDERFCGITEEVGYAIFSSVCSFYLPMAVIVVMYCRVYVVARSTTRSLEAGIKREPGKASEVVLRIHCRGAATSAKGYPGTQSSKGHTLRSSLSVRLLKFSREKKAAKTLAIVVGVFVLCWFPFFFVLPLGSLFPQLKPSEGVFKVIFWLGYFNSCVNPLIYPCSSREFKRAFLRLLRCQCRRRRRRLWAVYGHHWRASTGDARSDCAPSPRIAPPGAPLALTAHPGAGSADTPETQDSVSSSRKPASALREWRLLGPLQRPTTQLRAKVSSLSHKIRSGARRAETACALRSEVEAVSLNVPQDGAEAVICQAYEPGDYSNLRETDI

[3] = target: T2, α1D adrenoceptor (rat aorta); experiment: cell-based
[4] = target: T3, α1d (rat receptor expressed in mouse fibroblasts) (Rattus norvegicus, UniProt P23944); experiment: Radioligand binding with [3H]-prazosin, α1d (rat receptor expressed in mouse fibroblasts)
T3 construct: expressed in transfected cells; host or cells: mouse fibroblasts
T3 sequence (P23944 1-561): T2 sequence (P23944 1-561)

[5] = target: T4, α1A (rat submaxillary gland) (Rattus norvegicus, UniProt P43140); experiment: Radioligand binding with [3H]-prazosin, α1A (rat submaxillary gland)
T4 construct: from tissue; host or cells: rat submaxillary gland
T4 sequence (P43140 1-466): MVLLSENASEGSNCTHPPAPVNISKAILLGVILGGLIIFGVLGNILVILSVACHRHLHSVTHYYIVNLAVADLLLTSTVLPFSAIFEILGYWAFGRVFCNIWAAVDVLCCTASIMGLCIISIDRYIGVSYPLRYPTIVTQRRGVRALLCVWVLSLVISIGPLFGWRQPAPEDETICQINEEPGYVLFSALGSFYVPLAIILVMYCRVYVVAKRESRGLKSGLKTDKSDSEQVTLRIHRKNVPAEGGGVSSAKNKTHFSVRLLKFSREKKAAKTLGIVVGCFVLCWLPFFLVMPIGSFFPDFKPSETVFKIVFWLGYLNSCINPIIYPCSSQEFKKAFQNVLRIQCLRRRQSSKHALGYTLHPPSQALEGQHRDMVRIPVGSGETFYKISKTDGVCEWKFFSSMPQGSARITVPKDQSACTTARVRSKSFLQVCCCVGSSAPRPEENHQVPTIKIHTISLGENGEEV

[6] = target: T5, α1B adrenoceptor (rat spleen) (Rattus norvegicus, UniProt P15823); settings: for α1B r: Schild plot regression correlation; for α1B slope: Schild plot slope; for type of antagonism at α1B: based on slope and regression (r) of Schild plot
T5 sequence (P15823 1-515): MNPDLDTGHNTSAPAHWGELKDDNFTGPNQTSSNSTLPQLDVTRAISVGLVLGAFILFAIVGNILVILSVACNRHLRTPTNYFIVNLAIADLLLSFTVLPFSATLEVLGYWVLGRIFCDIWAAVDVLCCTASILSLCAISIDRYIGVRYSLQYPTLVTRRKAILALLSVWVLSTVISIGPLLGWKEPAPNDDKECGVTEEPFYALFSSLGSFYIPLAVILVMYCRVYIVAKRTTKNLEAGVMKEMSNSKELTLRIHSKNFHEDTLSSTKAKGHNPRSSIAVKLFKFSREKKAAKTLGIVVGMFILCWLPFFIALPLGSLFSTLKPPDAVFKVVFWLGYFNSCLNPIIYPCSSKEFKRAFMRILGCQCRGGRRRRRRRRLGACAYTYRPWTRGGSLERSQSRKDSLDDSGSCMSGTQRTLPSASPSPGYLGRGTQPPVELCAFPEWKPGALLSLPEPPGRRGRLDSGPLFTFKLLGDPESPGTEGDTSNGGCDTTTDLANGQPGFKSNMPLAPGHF
Excerpt: A cumulative concentration protocol was employed.

[7] = target: T6, α1A adrenoceptor (rabbit urethra) (Oryctolagus cuniculus, UniProt O02824); experiment: Rabbit urethra α1A subtype tissue bath; format: cell-based
T6 sequence (O02824 1-466): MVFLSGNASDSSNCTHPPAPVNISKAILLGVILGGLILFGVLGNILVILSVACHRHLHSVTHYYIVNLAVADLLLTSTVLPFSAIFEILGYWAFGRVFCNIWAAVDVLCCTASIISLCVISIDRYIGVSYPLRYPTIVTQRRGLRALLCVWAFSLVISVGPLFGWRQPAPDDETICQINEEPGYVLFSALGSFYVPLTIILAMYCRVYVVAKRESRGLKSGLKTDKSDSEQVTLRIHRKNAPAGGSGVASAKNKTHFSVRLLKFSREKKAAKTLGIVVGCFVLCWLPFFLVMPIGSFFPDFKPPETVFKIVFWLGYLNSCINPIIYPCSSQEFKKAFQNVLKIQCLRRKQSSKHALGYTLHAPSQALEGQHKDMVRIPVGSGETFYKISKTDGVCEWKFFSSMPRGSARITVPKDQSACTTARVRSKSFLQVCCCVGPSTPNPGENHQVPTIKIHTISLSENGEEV
Excerpt: Rabbit Urethra α1A Subtype
A cumulative concentration protocol was employed. […] Br. J. Pharmacol. 14, 48-58.

[8] = i.v., anesthetized dogs, mean ± S.E.M
[9] = i.v., anesthetized dogs, dose producing 20 mmHg increase in mean arterial pressure, mean ± S.E.M

Structure (SMILES) | IUP ED5mmHg (Female Beagle dogs; [8]) | effect on intraurethral pressure and mean arterial pressure (Female Beagle dogs) | α1D efficacy ([2]; rat aorta) | Ki [4] | Ki [5] | Ki [1] | α1D r ([2]; rat aorta) | α1D slope ([2]; rat aorta) | type of antagonism at α1D [2] | α1B r ([6]; rat spleen) | α1B slope ([6]; rat spleen) | type of antagonism at α1B [6] | MAP ED20mmHg (Female Beagle dogs; [9]) | other results
CS(=O)(=O)Nc1c(O)ccc2c1CCCC2C1=NCCN1 (centres unmarked) [Compound A-61603, reference compound] | 0.16 ± 0.02 nmol/kg | dose-dependent increases | 100% | 1560 ± 169 nM |  |  |  |  |  |  |  |  |  | MAP ED20mmHg (Female Beagle dogs; female, Beagle, dog, in vivo, iv): 0.27 ± 0.05 nmol/kg; Ki ([1]; hamster receptor expressed in mouse fibroblasts, [3H]-prazosin, read-out: Radioligand Binding Ki α1b (Hamster)): 1210 nM; EC50 [3]: 2510 nM
CCS(=O)(=O)Nc1cccc(Cc2c[nH]cn2)c1 [Compound A-286666] |  |  |  | 287 ± 41 nM | 137 ± 15 nM | 913 ± 135 nM | 0.9 | 0.93 | competitive antagonist | 0.9 | 0.81 | competitive antagonist |  | 
CC(N)C(O)c1ccccc1 (centres unmarked) [PPA, phenylpropanolamine, reference compound] | 1092 ± 384 nmol/kg | dose-dependent increases | 91% |  |  |  |  |  |  |  |  |  | 331 ± 80 nmol/kg | Selectivity ratio MAP ED20/IUP ED5 (Female Beagle dogs; calculated for each dog and then averaged): 0.4; Radioligand Binding Ki α1A (Rat) ([5]; rat submaxillary gland, [3H]-prazosin): weak adrenergic ligand; α1b binding (in words) ([1]; hamster receptor expressed in mouse fibroblasts, [3H]-prazosin): weak adrenergic ligand; α1A agonist activity (in words) [7]: weak agonist; α1A efficacy ([7]; percent of phenylephrine (100%) contraction): 68%; α1D agonist activity (in words; merged pD2/efficacy cell) ([2]; rat aorta): weak agonist; α1B efficacy ([6]; percent of phenylephrine (100%) contraction, rat spleen): 34%; α1B agonist activity (in words; merged pD2/efficacy cell) ([6]; rat spleen): weak agonist; α1d binding (in words) ([4]; rat receptor expressed in mouse fibroblasts, [3H]-prazosin): weak adrenergic ligand
CCS(=O)(=O)Nc1cccc(Cc2c[nH]cn2)c1C [Compound A-286569] | 41.9 ± 6.2 nmol/kg | dose-dependent increases |  | 840 ± 78 nM | 150 ± 32 nM | > 10000 nM | 0.5 | 1.1 | non-competitive antagonist | 0.6 | 1.3 | non-competitive antagonist | 201.6 ± 67 nmol/kg | 
